Laboratory results from patent US20230082430A1 (C4 Therapeutics, Inc., priority 2019, published 2023).

System: NCIH929.1 cells
Experiment: Cell viability assay for Table 2 (CellTiter-Glo 2.0, ATP quantification, 96 hr)
Format: cell-based
Conditions: 96 h, NCIH929.1 cell viability, 96 hr, top concentration 1 μM, 14 points half log titration; read-out: IC50
Description: Cell Viability Assay for Table 2
CellTiter-Glo® 2.0 Assay was purchased from Promega (Madison, Wis., USA). NCIH929.1 cell line was purchased from ATCC (Manassas, Va., USA). Cell culture flasks and 384-well microplates were acquired from VWR (Radnor, Pa., USA).

Row | SMILES | IC50 [nM]
1 | O=C1CCC(N2C(=O)c3cccc4c(Cc5ccc(CN6Cc7ccccc7C6)cc5)ccc2c34)C(=O)N1 (stereo not shown) [Compound 117, 3-(6-(4-(isoindolin-2-ylmethyl)benzyl)-2-oxobenzo[cd]indol-1(2H)-yl)piperidine-2,6-dione] | < 1
2 | O=C1CCC(N2C(=O)c3cccc4c(Cc5ccc(CN6C7COCC6C7)cc5)ccc2c34)C(=O)N1 (stereo not shown) [Compound 146, 3-[6-[[4-(3-oxa-6-azabicyclo[3.1.1]heptan-6-ylmethyl)phenyl]methyl]-2-oxo-benzo[cd]indol-1-yl]piperidine-2,6-dione] | < 1
3 | O=C1CCC(N2C(=O)c3cccc4c(Cc5cnn(C6CCN(CC7(F)CCC7)CC6)c5)ccc2c34)C(=O)N1 (stereo not shown) [Compound 59, 3-(6-((1-(1-((1-fluorocyclobutyl)methyl)piperidin-4-yl)-1H-pyrazol-4-yl)methyl)-2-oxobenzo[cd]indol-1(2H)-yl)piperidine-2,6-dione] | < 1
4 | N#CC1(C(=O)N2CCC(n3cc(Cc4ccc5c6c(cccc46)C(=O)N5C4CCC(=O)NC4=O)cn3)CC2)CC1 (stereo not shown) [Compound 38, 1-(4-(4-((1-(2,6-dioxopiperidin-3-yl)-2-oxo-l,2-dihydrobenzo[cd]indol-6-yl)methyl)-1H-pyrazol-1-yl)piperidine-1-carbonyl)cyclopropane-1-carbonitrile] | < 1
5 | CN1CC2CC(C(=O)N3CCC(n4cc(Cc5ccc6c7c(cccc57)C(=O)N6C5CCC(=O)NC5=O)cn4)CC3)(C2)C1 (stereo not shown) [Compound 265, 3-(6-((1-(1-(3-methyl-3-azabicyclo[3.1.1]heptane-1-carbonyl)piperidin-4-yl)-1H-pyrazol-4-yl)methyl)-2-oxobenzo[cd]indol-1(2H)-yl)piperidine-2,6-dione] | < 1
6 | N#Cc1ccc(N2CCN(Cc3cnn(Cc4ccc5c6c(cccc46)C(=O)N5C4CCC(=O)NC4=O)c3)CC2)c(F)c1 (single isomer, unassigned) [Compound 129, 4-[4-[[1-[[1-[2,6-dioxo-3-piperidyl]-2-oxo-benzo[cd]indol-6-yl]methyl]pyrazol-4-yl]methyl]piperazin-1-yl]-3-fluoro-benzonitrile] | < 1
7 | O=C1CCC(N2C(=O)c3cccc4c(Cc5ccc(CN6CCC(c7ccccc7)CC6)cc5)ccc2c34)C(=O)N1 (stereo not shown) [Compound 227, 3-(2-oxo-6-(4-((4-phenylpiperidin-1-yl)methyl)benzyl)benzo[cd]indol-1(2H)-yl)piperidine-2,6-dione] | < 1
8 | O=C1CCC(N2C(=O)c3cccc4c(Cc5ccc(CC6CCN(c7ccc(F)cc7)CC6)cc5)ccc2c34)C(=O)N1 (stereo not shown) [Compound 203, 3-[6-[[4-[[1-(4-fluorophenyl)-4-piperidyl]methyl]phenyl]methyl]-2-oxo-benzo[cd]indol-1-yl]piperidine-2,6-dione] | < 1
9 | O=C1CCC(N2C(=O)c3cccc4c(Cc5ccc(CN6CCC7(CCCO7)CC6)cc5)ncc2c34)C(=O)N1 (stereo not shown) [Compound 267, 3-[24-[[4-(1-oxa-8-azaspiro[4.5]decan-8-ylmethyl)phenyl]methyl]-28-oxo-31,34-diazatricyclododeca-,2(22),7(23),21(25),24(31)-pentaen-34-yl]piperidine-2,6-dione] | < 1
10 | CC1(n2cc(Cc3ccc4c5c(cccc35)C(=O)N4C3CCC(=O)NC3=O)cn2)CCN(CC2(C(F)(F)F)CC2)CC1 (stereo not shown) [Compound 105, 3-(6-((1-(4-methyl-1-((1-(trifluoromethyl)cyclopropyl)methyl)piperidin-4-yl)-1H-pyrazol-4-yl)methyl)-2-oxobenzo[cd]indol-1(2H)-yl)piperidine-2,6-dione] | < 1
11 | CN1C(=O)CCC(N2C(=O)c3cccc4c(Cc5cnn(C6CCN(CC7(C)CCC7)CC6)c5)ccc2c34)C1=O (stereo not shown) [Compound 294, 1-methyl-3-(6-((1-(1-((1-methylcyclobutyl)methyl)piperidin-4-yl)-1H-pyrazol-4-yl)methyl)-2-oxobenzo[cd]indol-1(2H)-yl)piperidine-2,6-dione] | < 100
12 | O=C1CCC(N2C(=O)c3cccc4c(Cc5ccc(CN6C7CCC6COC7)cc5)ccc2c34)C(=O)N1 (stereo not shown) [Compound 156, 3-[6-[[4-(3-oxa-8-azabicyclo[3.2.1]octan-8-ylmethyl)phenyl]methyl]-2-oxo-benzo[cd]indol-1-yl]piperidine-2,6-dione] | < 1
13 | O=C1CCC(N2C(=O)c3cccc4c(Cc5ccc(CN6CCC7(CCCC7)CC6)cc5)ccc2c34)C(=O)N1 (stereo not shown) [Compound 225, 3-(6-(4-((8-azaspiro[4.5]decan-8-yl)methyl)benzyl)-2-oxobenzo[cd]indol-1(2H)-yl)piperidine-2,6-dione] | < 1
14 | CC1(n2cc(Cc3ccc4c5c(cccc35)C(=O)N4C3CCC(=O)NC3=O)cn2)CCN(C(=O)C2(C#N)CCCCC2)CC1 (stereo not shown) [Compound 72, 1-(4-(4-((1-(2,6-dioxopiperidin-3-yl)-2-oxo-1,2-dihydrobenzo[cd]indol-6-yl)methyl)-1H-pyrazol-1-yl)-4-methylpiperidine-1-carbonyl)cyclohexane-1-carbonitrile] | < 1
15 | CC1(C(=O)N2CCC(n3cc(Cc4ccc5c6c(cccc46)C(=O)N5C4CCC(=O)NC4=O)nn3)CC2)CCC1 (stereo not shown) [Compound 192, 3-[6-[[1-[1-(1-methylcyclobutanecarbonyl)-4-piperidyl]triazol-4-yl]methyl]-2-oxo-benzo[cd]indol-1-yl]piperidine-2,6-dione] | < 1
16 | O=C1CCC(N2C(=O)c3cccc4c(Cc5cnn(C6CCN(CC7(C(F)(F)F)CC7)CC6)c5)ccc2c34)C(=O)N1 (stereo not shown) [Compound 62, 3-(2-oxo-6-((1-(1-((1-(trifluoromethyl)cyclopropyl)methyl)piperidin-4-yl)-1H-pyrazol-4-yl)methyl)benzo[cd]indol-1(2H)-yl)piperidine-2,6-dione] | < 1
17 | O=C1CCC(N2C(=O)c3cccc4c(Cc5cnn(C6CCN(C(=O)c7ccccn7)CC6)c5)ccc2c34)C(=O)N1 (stereo not shown) [Compound 46, 3-(2-oxo-6-((1-(1-picolinoylpiperidin-4-yl)-1H-pyrazol-4-yl)methyl)benzo[cd]indol-1(2H)-yl)piperidine-2,6-dione] | < 1
18 | O=C1CCC(N2C(=O)c3cccc4c(Cc5ccc(CN6CCC7(CCCCO7)CC6)cc5)ccc2c34)C(=O)N1 (stereo not shown) [Compound 228, 3-(6-(4-((1-oxa-9-azaspiro[5.5]undecan-9-yl)methyl)benzyl)-2-oxobenzo[cd]indol-1(2H)-yl)piperidine-2,6-dione] | < 1
19 | O=C1CCC(N2C(=O)c3cccc4c(Cc5cnn(C6CCN(C(=O)C7(CO)CCC7)CC6)c5)ccc2c34)C(=O)N1 (stereo not shown) [Compound 205, 3-[6-[[1-[1-[1-(hydroxymethyl)cyclobutanecarbonyl]-4-piperidyl]pyrazol-4-yl]methyl]-2-oxo-benzo[cd]indol-1-yl]piperidine-2,6-dione] | < 1
20 | CC1(C(=O)N2CCC(n3cc(Cc4ccc5c6c(cccc46)C(=O)N5C4CCC(=O)NC4=O)cn3)CC2)CCC1 (stereo not shown) [Compound 53, 3-(6-((1-(1-(1-methylcyclobutane-1-carbonyl)piperidin-4-yl)-1H-pyrazol-4-yl)methyl)-2-oxobenzo[cd]indol-1(2H)-yl)piperidine-2,6-dione] | < 1
21 | N#Cc1ccc(N2CCN(Cc3ccc(Cc4ccc5c6c(cccc46)C(=O)N5C4CCC(=O)NC4=O)cc3)C3(CC3)C2)c(F)c1 (stereo not shown) [Compound 131, 4-[4-[[4-[[1-(2,6-dioxo-3-piperidyl)-2-oxo-benzo[cd]indol-6-yl]methyl]phenyl]methyl]-4,7-diazaspiro[2.5]octan-7-yl]-3-fluoro-benzonitrile] | < 1
22 | O=C1CCC(N2C(=O)c3cccc4c(Cc5ccc(CN6CCOC(c7ccc(F)cc7)C6)cc5)ccc2c34)C(=O)N1 (stereo not shown) [Compound 119, 3-(6-(4-((2-(4-fluorophenyl)morpholino)methyl)benzyl)-2-oxobenzo[cd]indol-1(2H)-yl)piperidine-2,6-dione] | < 1
23 | CC(C)(C)OC(=O)N1CCC(n2cc(Cc3ccc4c5c(cccc35)C(=O)N4C3CCC(=O)NC3=O)cn2)CC1 (single isomer, unassigned) [Compound 141, tert-butyl 4-[4-[[1-[2,6-dioxo-3-piperidyl]-2-oxo-benzo[cd]indol-6-yl]methyl]pyrazol-1-yl]piperidine-1-carboxylate] | < 1
24 | CC(C)(CO)C(=O)N1CCC(C)(n2cc(Cc3ccc4c5c(cccc35)C(=O)N4C3CCC(=O)NC3=O)cn2)CC1 (stereo not shown) [Compound 98, 3-(6-((1-(1-(3-hydroxy-2,2-dimethylpropanoyl)-4-methylpiperidin-4-yl)-1H-pyrazol-4-yl)methyl)-2-oxobenzo[cd]indol-1(2H)-yl)piperidine-2,6-dione] | < 1
25 | CC1(CN2CCC(n3nc(Cl)cc3Cc3ccc4c5c(cccc35)C(=O)N4C3CCC(=O)NC3=O)CC2)CCC1 (stereo not shown) [Compound 206, 3-[6-[[5-chloro-2-[1-[(1-methylcyclobutyl)methyl]-4-piperidyl]pyrazol-3-yl]methyl]-2-oxo-benzo[cd]indol-1-yl]piperidine-2,6-dione] | < 1
26 | N#CC1(CN2CCC(n3cc(Cc4ccc5c6c(cccc46)C(=O)N5C4CCC(=O)NC4=O)cn3)CC2)CCC1 (stereo not shown) [Compound 60, 1-((4-(4-((1-(2,6-dioxopiperidin-3-yl)-2-oxo-1,2-dihydrobenzo[cd]indol-6-yl)methyl)-1H-pyrazol-1-yl)piperidin-1-yl)methyl)cyclobutane-1-carbonitrile] | < 1
27 | COC(C)(C)C(=O)N1CCC(C)(n2cc(Cc3ccc4c5c(cccc35)C(=O)N4C3CCC(=O)NC3=O)cn2)CC1 (stereo not shown) [Compound 84, 3-(6-((1-(1-(2-methoxy-2-methylpropanoyl)-4-methylpiperidin-4-yl)-1H-pyrazol-4-yl)methyl)-2-oxobenzo[cd]indol-1(2H)-yl)piperidine-2,6-dione] | < 1
28 | COC1(CN2CCC(n3cc(Cc4ccc5c6c(cccc46)C(=O)N5C4CCC(=O)NC4=O)cn3)CC2)CC1 (stereo not shown) [Compound 66, 3-(6-((1-(1-((1-methoxycyclopropyl)methyl)piperidin-4-yl)-1H-pyrazol-4-yl)methyl)-2-oxobenzo[cd]indol-1(2H)-yl)piperidine-2,6-dione] | < 1
